Values joined by “and” are separate entries in the source; they are usually repeats but may differ in a detail not shown here. Equal values may be shown once.

Data on 24 compounds can be found in patent US10858367B2, “Compounds” (GLAXOSMITHKLINE INTELLECTUAL PROPERTY DEVELOPMENT LIMITED, priority 2017, dated 2020).

In this test the target is T1, LRRK2 Ser935 phosphorylation in SH-SY5Y cells over-expressing recombinant full length LRRK2 (Homo sapiens, UniProt Q5S007).
T1 construct: A BacMam virus expressing full length recombinant LRRK2 was purchased from Invitrogen; host or cells: SH-SY5Y human neuroblastoma cells transduced with BacMam LRRK2 virus
T1 sequence (Q5S007 whole entry): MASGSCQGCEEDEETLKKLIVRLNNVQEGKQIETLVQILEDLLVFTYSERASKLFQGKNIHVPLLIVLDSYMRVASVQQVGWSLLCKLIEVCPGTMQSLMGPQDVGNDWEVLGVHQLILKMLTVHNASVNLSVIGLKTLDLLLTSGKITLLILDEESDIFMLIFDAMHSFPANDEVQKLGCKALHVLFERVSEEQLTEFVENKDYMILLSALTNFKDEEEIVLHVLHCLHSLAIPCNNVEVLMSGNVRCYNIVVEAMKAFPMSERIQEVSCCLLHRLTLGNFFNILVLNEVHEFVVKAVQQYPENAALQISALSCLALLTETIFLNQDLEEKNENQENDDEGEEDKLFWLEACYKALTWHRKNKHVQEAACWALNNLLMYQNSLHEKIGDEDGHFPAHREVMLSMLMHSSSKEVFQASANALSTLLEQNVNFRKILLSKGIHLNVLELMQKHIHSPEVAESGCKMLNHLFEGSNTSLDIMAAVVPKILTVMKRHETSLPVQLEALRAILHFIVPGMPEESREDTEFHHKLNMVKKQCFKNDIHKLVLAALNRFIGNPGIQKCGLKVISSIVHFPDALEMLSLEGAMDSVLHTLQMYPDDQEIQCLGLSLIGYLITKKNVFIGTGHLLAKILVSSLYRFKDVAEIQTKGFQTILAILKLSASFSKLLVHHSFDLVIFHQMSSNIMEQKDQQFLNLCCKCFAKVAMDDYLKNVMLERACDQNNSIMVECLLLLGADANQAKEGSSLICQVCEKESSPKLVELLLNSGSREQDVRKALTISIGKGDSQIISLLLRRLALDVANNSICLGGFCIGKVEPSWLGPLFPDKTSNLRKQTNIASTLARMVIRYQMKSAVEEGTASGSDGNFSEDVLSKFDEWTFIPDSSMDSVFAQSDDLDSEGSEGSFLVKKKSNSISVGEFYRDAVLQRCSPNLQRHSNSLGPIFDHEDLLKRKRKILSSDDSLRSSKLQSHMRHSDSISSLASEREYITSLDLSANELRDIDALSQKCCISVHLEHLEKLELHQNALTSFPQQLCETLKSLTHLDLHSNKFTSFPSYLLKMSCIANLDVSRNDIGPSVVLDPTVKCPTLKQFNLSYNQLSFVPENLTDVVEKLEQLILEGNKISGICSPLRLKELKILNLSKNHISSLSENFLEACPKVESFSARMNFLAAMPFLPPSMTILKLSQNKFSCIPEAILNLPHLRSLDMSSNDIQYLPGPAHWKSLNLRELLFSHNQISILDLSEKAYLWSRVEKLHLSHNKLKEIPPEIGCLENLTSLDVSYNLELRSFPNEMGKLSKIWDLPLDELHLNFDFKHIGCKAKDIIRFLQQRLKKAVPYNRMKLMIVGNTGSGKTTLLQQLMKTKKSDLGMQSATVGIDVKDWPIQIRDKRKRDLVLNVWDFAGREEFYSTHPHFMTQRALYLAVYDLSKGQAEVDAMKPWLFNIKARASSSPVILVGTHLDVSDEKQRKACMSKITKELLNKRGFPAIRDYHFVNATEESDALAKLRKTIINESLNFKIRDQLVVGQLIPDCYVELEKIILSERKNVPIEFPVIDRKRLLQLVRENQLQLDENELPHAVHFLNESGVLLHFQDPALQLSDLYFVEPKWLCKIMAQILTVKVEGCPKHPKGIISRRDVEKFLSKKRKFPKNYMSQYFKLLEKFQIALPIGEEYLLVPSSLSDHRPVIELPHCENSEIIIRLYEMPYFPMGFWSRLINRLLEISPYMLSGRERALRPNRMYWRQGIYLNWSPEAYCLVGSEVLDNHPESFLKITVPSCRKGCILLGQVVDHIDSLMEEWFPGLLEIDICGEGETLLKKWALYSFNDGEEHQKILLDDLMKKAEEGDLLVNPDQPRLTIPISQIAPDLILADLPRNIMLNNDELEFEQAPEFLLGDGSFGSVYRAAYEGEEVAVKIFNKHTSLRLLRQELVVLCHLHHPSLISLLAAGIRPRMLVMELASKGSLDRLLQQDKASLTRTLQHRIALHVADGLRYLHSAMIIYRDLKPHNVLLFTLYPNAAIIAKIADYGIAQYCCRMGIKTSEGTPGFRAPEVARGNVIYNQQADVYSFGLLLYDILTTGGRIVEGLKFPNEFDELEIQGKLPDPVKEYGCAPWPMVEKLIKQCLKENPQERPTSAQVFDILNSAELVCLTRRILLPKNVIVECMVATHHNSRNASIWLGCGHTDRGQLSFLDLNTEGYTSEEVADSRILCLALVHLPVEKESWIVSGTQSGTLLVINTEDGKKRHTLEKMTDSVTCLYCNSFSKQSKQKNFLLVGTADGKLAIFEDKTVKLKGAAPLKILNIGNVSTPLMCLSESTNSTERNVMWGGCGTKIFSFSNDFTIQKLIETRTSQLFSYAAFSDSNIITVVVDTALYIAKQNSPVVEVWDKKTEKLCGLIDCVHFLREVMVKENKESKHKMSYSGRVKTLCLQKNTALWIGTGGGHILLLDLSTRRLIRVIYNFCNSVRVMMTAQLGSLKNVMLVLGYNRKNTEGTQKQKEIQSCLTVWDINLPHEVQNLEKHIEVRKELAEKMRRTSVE
The test can be described thus: Recombinant cellular LRRK2 AlphaScreen assay. In kind it is cell-based. The settings on record: human neuroblastoma SH-SY5Y cells, BacMam full length LRRK2, 60 minutes with compound, read-out: pIC50 in the recombinant cellular LRRK2 AlphaScreen assay (converted). The text has this: b. Recombinant Cellular LRRK2 AlphaScreen Assay
To determine the activity of compounds against LRRK2 kinase activity in cells, the observed LRRK2 kinase-dependent modulation of LRRK2 Ser 935 phosphorylation (Dzamko et al., 2010, Biochem. J. 430: 405-413) was utilized to develop a quantitative 384 well plate-based immunoassay of LRRK2 Ser935 phosphorylation in the human neuroblastoma cell line SH-SY5Y, engineered to over-express recombinant full length LRRK2 protein.
A BacMam virus expressing full length recombinant LRRK2 was purchased from Invitrogen and amplified by inoculation of SF-9 cells at MOI 0.3 for 4-5 days in Sf-900 III SFM medium supplemented with 3% fetal bovine serum. Infected cell cultures were then centrifuged at 2000 g for 20 minutes, viral supernatant titer determined by anti-gp64 plaque assay and stored at 4° C.
Affinity-purified anti-phospho LRRK2 Ser935 sheep polyclonal antibody (Dzamko et al., 2010, Biochem. J. 430: 405-413) was biotinylated by standard methods (PerkinElmer). Anti-LRRK2 rabbit polyclonal antibody was purchased from Novus Biologicals. AlphaScreen Protein A IgG Kit (including acceptor and donor beads) was purchased from Perkin Elmer.
SH-SY5Y cells were grown in DMEM/F12 medium with 10% dialysed fetal bovine serum and harvested by treatment with 0.5% trypsin-EDTA for 5 minutes at 37° C. followed by centrifugation at 1000 rpm for 4 minutes. The cell pellet was resuspended in Opti-MEM reduced serum media (Invitrogen) at 200,000 cells/ml and mixed with the BacMam LRRK2 virus at MOI=50. 50 μl cell solutions were then dispensed to each well of a 384-well plate and incubated at 37° C., 5% CO2 for 24 hours.
Serial dilutions of test compounds were prepared in Opti-MEM reduced serum media (Invitrogen) and 5.6 ul transferred from compound plate to cell assay plate to achieve a top final assay concentration of 10 uM. DMSO was used in certain wells as controls. Cells were incubated at 37° C., 5% CO2 for 60 minutes. The medium was then removed and cells lysed by addition of 20 ul cell lysis buffer (Cell Signaling Technology) and incubation at 4° C. for 20 minutes. 10 ul of antibody/acceptor bead mix [(1/1000 biotinylated-pS935 LRRK2 antibody, 1/1000 total-LRRK2 antibody, 1/100 Acceptor beads in AlphaScreen detection buffer (25 mM Hepes (pH 7.4), 0.5% Triton X-100, 1 mg/ml Dextran 500 and 0.1% BSA)] was then added to each well and plates incubated for 2 hours at ambient temperature in the dark. 10 μl of donor beads solution (1/33.3 donor beads in AlphaScreen detection buffer) was then added to each well. Following incubation for a further 2 hours at ambient temperature in the dark, plates were read on an EnVision™ plate reader at emission 520-620 nm with excitation 680 nm. Dose response curve data was based on sigmoidal dose-response model.
(In general: Bead proximity is the source of the signal in Alpha formats.)
Consider `[2H]C1(N2CCC(c3cc4c(cnn4-c4cc(N5C[C@H]6C[C@@H]5CO6)nc(OC)n4)cc3C)CC2)COC1` [Example E56, (1R,4R)-5-(6-(6-(1-(3-deuterooxetan-3-yl)piperidin-4-yl)-5-methyl-1H-indazol-1-yl)-2-methoxypyrimidin-4-yl)-2-oxa-5-azabicyclo[2.2.1]heptane], for which the IC50 is not above 0.01 µM.
Turning to `Cc1nc(N2C[C@@H]3C[C@H]2CO3)cc(-n2ncc3cc(C)c([C@H]4CC[C@](C)(O)CC4)cc32)n1` [Example E8, Trans-4-(1-(6-((1S,4S)-2-oxa-5-azabicyclo[2.2.1]heptan-5-yl)-2-methylpyrimidin-4-yl)-5-methyl-1H-indazol-6-yl)-1-methylcyclohexanol], the IC50 is not above 1 µM.
`Cc1nc(N2C[C@@H]3C[C@H]2CO3)cc(-n2ncc3cc(C)c(C4CCN(C5CCOC5)CC4F)cc32)n1` (single isomer, unassigned) [Example E151]: the IC50 is not above 1 µM.
As to `Cc1nc(N2C[C@H]3C[C@@H]2CO3)cc(-n2ncc3cc(C)c(C4CCN(C(=O)CO)CC4)cc32)n1` [Example E53, 1-(4-(1-(6-((1R,4R)-2-oxa-5-azabicyclo[2.2.1]heptan-5-yl)-2-methylpyrimidin-4-yl)-5-methyl-1H-indazol-6-yl)piperidin-1-yl)-2-hydroxyethanone], the IC50 is not above 1 µM.
The same measure for `Cc1nc(N2C[C@@H]3C[C@H]2CO3)cc(-n2ncc3cc(C)c(C4CCN(C(=O)CO)CC4)cc32)n1` [Example E54, 1-(4-(1-(6-((1S,4S)-2-oxa-5-azabicyclo[2.2.1]heptan-5-yl)-2-methylpyrimidin-4-yl)-5-methyl-1H-indazol-6-yl)piperidin-1-yl)-2-hydroxyethanone]: not above 1 µM; for `Cc1nc(N2CC3CC2CC3C(=O)O)cc(-n2ncc3cc(C)c(C4CCOCC4)cc32)n1` (single isomer, unassigned) [Example E82, 2-{2-Methyl-6-[5-methyl-6-(tetrahydro-pyran-4-yl)-indazol-1-yl]-pyrimidin-4-yl}-2-aza-bicyclo[2.2.1]heptane-5-carboxylic Acid]: not above 1 µM.
The same measure for `COc1nc(N2C[C@H]3C[C@@H]2CO3)cc(-n2ncc3cc(C)c(C4CCN(CCO)CC4)cc32)n1` [Example E27, 2-(4-(1-(6-((1R,4R)-2-oxa-5-azabicyclo[2.2.1]heptan-5-yl)-2-methoxypyrimidin-4-yl)-5-methyl-1H-indazol-6-yl)piperidin-1-yl)ethanol]: not above 1 µM.
As for `Cc1nc(N2CC3CC(C2)C3C(=O)O)cc(-n2ncc3cc(C)c(C4CCC(C)(O)CC4)cc32)n1` (single isomer, unassigned) [Example E78, Cis-3-{6-[6-(4-Hydroxy-4-methyl-cyclohexyl)-5-methyl-indazol-1-yl]-2-methyl-pyrimidin-4-yl}-3-aza-bicyclo[3.1.1]heptane-6-carboxylic Acid], the IC50 is not above 0.01 µM.
For `COc1nc(N2CC3CCC2CO3)cc(-n2ncc3cc(C)c(C4CCN(C5CCOC5)CC4)cc32)n1` (single isomer, unassigned) [Example E64, 5-(2-methoxy-6-(5-methyl-6-(1-(tetrahydrofuran-3-yl)piperidin-4-yl)-1H-indazol-1-yl)pyrimidin-4-yl)-2-oxa-5-azabicyclo[2.2.2]octane], the IC50 was not above 1 µM.
For `COc1nc(N2C[C@H]3C[C@@H]2CO3)cc(-n2ncc3cc(C)c(C4CCN(C5COC5)CC4)cc32)n1` [Example E1, (1R,4R)-5-(2-methoxy-6-(5-methyl-6-(1-(oxetan-3-yl)piperidin-4-yl)-1H-indazol-1-yl)pyrimidin-4-yl)-2-oxa-5-azabicyclo[2.2.1]heptane], the IC50 was ≤ 1 µM and 0.02 µM.
The same measure for `COc1nc(N2CC3CC2CO3)cc(-n2ncc3cc(C)c(C4CCN(CCO)CC4F)cc32)n1` (single isomer, unassigned) [Example E18]: not above 0.01 µM; for `Cc1nc(N2CC3CC2CO3)cc(-n2ncc3cc(C)c(C4CCN([C@H]5CCOC5)CC4O)cc32)n1` (single isomer, unassigned) [Example E137]: not above 1 µM.
For the compound `Cc1nc(N2CC3(CO)CC2CO3)cc(-n2ncc3cc(C)c(C4CCN(C5CCOC5)CC4)cc32)n1` (single isomer, unassigned) [Example E153, (5-(2-methyl-6-(5-methyl-6-(1-(tetrahydrofuran-3-yl)piperidin-4-yl)-1H-indazol-1-yl)pyrimidin-4-yl)-2-oxa-5-azabicyclo[2.2.1]heptan-1-yl)methanol], the IC50 was not above 1 µM.
Take `COc1nc(N2C[C@H]3C[C@@H]2CO3)cc(-n2ncc3cc(C)c(C4CCNCC4)cc32)n1` [Example E58, (1R,4R)-5-(2-methoxy-6-(5-methyl-6-(piperidin-4-yl)-1H-indazol-1-yl)pyrimidin-4-yl)-2-oxa-5-azabicyclo[2.2.1]heptane]: the IC50 was not above 1 µM.
Take `Cc1nc(N2CC3CC2CC3C(=O)O)cc(-n2ncc3cc(C)c(C4CCC(C)(O)CC4)cc32)n1` (single isomer, unassigned) [Example E75, 2-(6-(6-(cis-4-hydroxy-4-methylcyclohexyl)-5-methyl-1H-indazol-1-yl)-2-methylpyrimidin-4-yl)-2-azabicyclo[2.2.1]heptane-5-carboxylic Acid]: the IC50 is not above 0.01 µM.
Turning to `Cc1nc(N2C[C@@H]3C[C@H]2CO3)cc(-n2ncc3cc(C)c(C4CCN(C5COC5)CC4)cc32)n1` [Example E40, (1S,4S)-5-(2-methyl-6-(5-methyl-6-(1-(oxetan-3-yl)piperidin-4-yl)-1H-indazol-1-yl)pyrimidin-4-yl)-2-oxa-5-azabicyclo[2.2.1]heptane], the IC50 was not above 1 µM.
With `Cc1nc(N2C3COCC2COC3)cc(-n2ncc3cc(C)c(C4CCN(C5COC5)CC4)cc32)n1` [Example E46, 9-(2-methyl-6-(5-methyl-6-(1-(oxetan-3-yl)piperidin-4-yl)-1H-indazol-1-yl)pyrimidin-4-yl)-3,7-dioxa-9-azabicyclo[3.3.1]nonane], the IC50 was not above 1 µM.
With `Cc1nc(N2C[C@@H]3C[C@H]2CN3C2COC2)cc(-n2ncc3cc(C)c([C@H]4CC[C@](C)(O)CC4)cc32)n1` [Example E32, Trans-1-methyl-4-(5-methyl-1-(2-methyl-6-((1S,4S)-5-(oxetan-3-yl)-2,5-diazabicyclo[2.2.1]heptan-2-yl)pyrimidin-4-yl)-1H-indazol-6-yl)cyclohexanol], the IC50 is 1.86 µM.
The same measure for `COc1nc(N2C[C@@H]3C[C@H]2CO3)cc(-n2ncc3cc(C)c(C4CCNCC4)cc32)n1` [Example E59, (1S,4S)-5-(2-methoxy-6-(5-methyl-6-(piperidin-4-yl)-1H-indazol-1-yl)pyrimidin-4-yl)-2-oxa-5-azabicyclo[2.2.1]heptane]: not above 1 µM; for `COc1nc(N2CC3CC2CC3C(=O)O)cc(-n2ncc3cc(Cl)c(O[C@H]4CCOC4)cc32)n1` (single isomer, unassigned) [Example E84]: not above 1 µM; for `Cc1nc(N2C[C@H]3C[C@@H]2CO3)cc(-n2ncc3cc(Cl)c(N4CCC(C)(O)CC4)cc32)n1` [Example E34, 1-(1-(6-((1R,4R)-2-oxa-5-azabicyclo[2.2.1]heptan-5-yl)-2-methylpyrimidin-4-yl)-5-chloro-1H-indazol-6-yl)-4-methylpiperidin-4-ol]: not above 1 µM.
For the compound `COc1nc(N2C[C@@H]3C[C@H]2CO3)cc(-n2ncc3cc(C)c(C4CCN(CCC(=O)O)CC4F)cc32)n1` (single isomer, unassigned) [Example E161], the IC50 is not above 1 µM.
Take `Cc1nc(N2C[C@H]3C[C@@H]2CO3)cc(-n2ncc3cc(C)c(C4C5CN(C6CCOC6)CC54)cc32)n1` (stereo partly drawn) [Example E179, (1R,4R)-5-(2-methyl-6-(5-methyl-6-(3-((S)-tetrahydrofuran-3-yl)-3-azabicyclo-[3.1.0]hexan-6-yl)-1H-indazol-1-yl)pyrimidin-4-yl)-2-oxa-5-azabicyclo[2.2.1]heptane]: the IC50 was not above 1 µM.
For the compound `COc1nc(N2C[C@@H]3C[C@H]2CO3)cc(-n2ncc3cc(C)c(C4CCN(C5CCOC5)CC4)cc32)n1` (single isomer, unassigned) [Example E15], the IC50 is not above 1 µM.
